Test results published in patent US12097213B2, “Sequential treatment of cancers using 6-thio-dG, checkpoint inhibitors and radiation therapy” (The Board of Regents of the University of Texas System, priority 2020, dated 2024).

Experiments:
Format in all cases: in vivo, mouse
tumor-specific T cells = assay: IFN-γ ELISPOT of splenocytes / draining lymph node cells; conditions: advanced MC38 tumors; stimulated with irradiated MC38 tumor cells
Description: IFN-γ enzyme-linked immunosorbent spot assay (ELISPOT). MC38 tumors were injected subcutaneously on the right flank of C57BL/6. For 6-thio-dG single treatment, 3 mg/kg 6-thio-dG was intraperitoneally given on days 7, 8 and 9; for PD-L1 blockade combination therapy in MC38 model, 3 mg/kg 6-thio-dG was given on day 10 and day 11, 50 μg PD-L1 was intraperitoneally injected on day 11. 7 days after last treatment, tumor draining lymphoid and spleen from tumor-bearing mice were collected and single-cell suspension was prepared. Irradiated MC38 tumor cells and control LLC tumor cells were used to re-stimulate the tumor-specific T cells. 1.5×10^5 draining lymph nodes cells or splenocytes and 7.5×10^4 irradiated tumor cells were co-cultured for 48 hrs, and ELISPOT assay was performed using the IFN-γ ELISPOT kit (BD Bioscience) according to the manufacturer's instructions. IFN-γ spots were enumerated with the CTL-ImmunoSpot® S6 Analyzer (Cellular Technology Limited).

MC38 tumor cells = assay: MC38 tumor growth and treatment in mice
Description: (§1) Tumor growth and treatment. A total of 5×10^5 MC38, 5×10^5 CT26 or 1×10^6 LLC cells were inoculated subcutaneously into right dorsal flanks of the mice in 100 μL phosphate buffered saline (PBS). Tumor-bearing mice were randomly grouped into treatment groups when tumors grew to around 100 mm^3. For 6-thio-dG single treatment, 3 mg/kg 6-thio-dG was intraperitoneally given on days 7, 8 and 9 in MC38 tumor and LLC tumor and on days 5, 6, 7 for CT26 tumor. For CSF1R, NKL.1, CD4+ and CD8+ T cell depletion, 200 μg of antibodies were intraperitoneally injected 1 day before treatment initiation and then twice a week for 2 weeks. For PD-L1 blockade combination therapy in MC38 model, 6-thio-dG was given on day 10 and day 11, 50 μg PD-L1 was intraperitoneally injected on day 13 and 17. For PD-L1 blockade combination therapy in LLC model, 6-thio-dG was given on day 4, 5, 6, 10 and 11, 200 μg PD-L1 was intraperitoneally injected on day 8 and 13. Tumor volumes were measured by the length (a), width (b) and height (h) and calculated as tumor volume=abh/2.

[1] = system: LLC murine lung tumor cells; assay: LLC tumor growth and treatment in mice
Description: as §1, with “For 6-thio-dG single treatment, 3 mg/kg 6-thio-dG was intraperitoneally given on days 7, 8 and 9 in MC38 tumor and LLC tumor and on days 5, 6, 7 for CT26 tumor.” left out

With “anti-PD-L1: fully humanized, engineered monoclonal antibody of IgG1 isotype against PD-L1 (Atezolizumab) [reference compound]” the “tumor-specific T cell response in draining lymph nodes (IFN-γ production)” value (tumor-specific T cells) was “little effect”, the “MC38 tumors in LLC cured mice” value (MC38 tumor cells; LLC cured mice injected with MC38) was “had no affect” and the “tumor volume / tumor growth in advanced tumors” value (MC38 tumor cells; tumor sizes 150-200 mm^3, 6-thio-dG 3 mg/kg days 10, 11, 50 μg anti-PD-L1 days 13 and 17) was “difficult to control”. For the same substance, the tumor burden ([1]; PD-L1 blockade resistant LLC model, 6-thio-dG 3 mg/kg days 4, 5, 6, 10, 11, 200 μg anti-PD-L1 days 8 and 13) was “no therapeutic effect” and the “tumor growth (FIG. 8A)” value ([1]; lewis lung carcinoma, three days 6-thio-dG followed two days later with anti-PD-L1) was “same rapid tumor growth”.
